Results reported in US20240216355A1, “PHARMACEUTICAL COMPOSITIONS FOR USE IN THE PREVENTION AND TREATMENT OF A DISEASE OR DISORDER CAUSED BY OR ASSOCIATED WITH ONE OR MORE PREMATURE TERMINATION CODONS” (Monte Rosa Therapeutics, Inc., priority 2021, published 2024).
Where two headings read alike, the source gives them in different places.

Legend:
[1] = biological target: T1, Full length wild-type cereblon CRBN (Homo sapiens, UniProt Q96SW2); assay: Fluorescence polarization (FP) assay indicating cereblon binding
T1 construct: Full length wild-type cereblon CRBN (80.0 nM, 10 μL) was incubated in assay buffer
Experimental: Compound activity was monitored in a fluorescence polarization (FP) homogeneous assay using 1-[5-({2-[2-(2-{[2-(2,6-dioxopiperidin-3-yl)-1,3-dioxo-2,3-dihydro-1H-isoindol-4-yl]oxy}acetamido)ethoxy]ethyl}carbamoyl)pentyl]-3,3-dimethyl-2-[(1E,3E)-5-[(2E)-1,3,3-trimethyl-5-sulfo-2,3-dihydro-1H-indol-2-ylidene]penta-1,3-dien-1-yl]-3H-indol-1-ium-5-sulfonate as a fluorescent probe. Unless otherwise stated, all reagents were purchased from Sigma Aldrich. Enzymatic reactions were conducted in Perkin-Elmer Black 384 well ProxiPlate Plus (catalogue no. 6008269) in 10 μL total volume. Full length wild-type cereblon CRBN (80.0 nM, 10 μL) was incubated in assay buffer containing 20 mM HEPES (pH 8.0), […], 0.5 mM TCEP and 0.05% Tween 20 in the presence or absence of compound (300 nL). Inhibitors were stored as 10 mM DMSO stocks in an inert environment (low humidity, dark, low oxygen, room temperature) using the Storage Pod System. Compounds and DMSO were dispensed using the Echo E5XX (Labcyte Inc. USA) to give concentrations from 300 to 0.937 or 3000 to 9.3 nM in a 12 data point curve. […] Following incubation at room temperature for 30 min, the assay was initiated by dispensing the probe to a final concentration of 5 nM (2.5 nL of a 20 μM stock) using the Echo E5XX. FP was measured after a period of 12 hours using a Pherastar plate reader (BMG Labtech, Germany) exciting at 590 nm and measuring the amount of parallel and perpendicular light at 675 nm. The FP signal was subsequently normalized to the no-compound control (i.e., DMSO). Analysis and IC50 values were derived using Dotmatics (Dotmatics UK) software.

[2] = biological target: T2, GSPT1 (Homo sapiens, UniProt P15170+Q96SW2); assay: GSPT1 degradation immunofluorescence assay in CAL-51 cells; assay type: cell-based; details: 6 hours treatment
T2 construct: CAL-51 cells were purchased from DSMZ (cat. Number ACC302); host or cells: CAL-51 cells
Experimental: CAL-51 cells were purchased from DSMZ (cat. Number ACC302), sub-cultured in 90% Dulbecco's MEM (4.5 g/L glucose, Gibco 11965)+10% heat inactivated FBS (BioConcept, 2-01F1361) and incubated at 37° C., 5% CO2. For the assay, imaging microtiterplate Cell Carrier 96 Ultra (Perkin Elmer 6055302) were pre-coated with Fibronectin (Sigma F085, 30 μl at 0.2 μg/ml) in PBS (100p, Gibco 14190) for 45 min at room temperature, rinsed with PBS and CAL-51 cells (30K cells/well) were plated and let to adhere overnight. Cells were treated with compounds typically using a serial dilution ranging from 30 μM to 0.1 nM for 6 hours. Compounds were stored at 10 mM DMSO stocks. Vehicle (DMSO), positive (CC-885, 10 μM) and rescue controls (positive control plus 0.2 μM bortezomib) were also included at this stage. Cells were subsequently rinsed with PBS and fixed in 10% Formalin solution (50p, Sigma HT5011)) for 20 mins at room temperature. Following three consecutive PBS washes (100 μl), cells were permeabilized in 0.1% Triton X-100 in PBS (Sigma 93443, 50 μl) for 15 mins at room temperature. Following three further PBS washes, 50 μl blocking buffer (1% BSA, Sigma A4503, in PBS) was added for 45 min for signal-to-noise reduction. Primary antibody (human GSPT1, Sigma HPA052488) was diluted in blocking buffer (dil.1/300, 35 μl/well) and incubated with the cells overnight at 4° C. After three PBS washes, Alexa-fluor 488 coupled secondary antibodies (Invitrogen, A32731, dil. 1/1000), Alexa-fluor 647-Phalloïdin (Invitrogen, A22287, dil. 1/200) and DAPI (Thermo, #62248, dil.1/1000) were diluted in blocking buffer and incubated with the samples for 2 hours at room temperature. After three final PBS washes, samples were conserved in 100 μl PBS in the dark, until measurement. Image acquisition was performed on the Operetta High-Content Imager (Perkin-Elmer). Fluorescence intensity of Alexa-Fluor 488 (GSPT1), Alexa-Fluor 647 (Actin) and DAPI (Nucleus) were measured. For the determination of GSPT1 DC50 values, a custom algorithm implemented in the PerkinElmer image analysis software Harmony-Acapella@ was developed. After user-defined setting of adjustment parameters, the analysis was run identically without human intervention for all image fields. DAPI staining of the nuclei was used to determine the location of cells using standard nuclei detection modules. Segmentation artifacts were removed by threshold-based filters for area, roundness and intensity. The outline of the cells was determined analogously from the sum of the normalized, smoothed DAPI and Actin channel, starting from each nucleus.
The Alexa-Fluor 488 (GSPT1) signal intensity in each cell was finally measured, in order to obtain a Mean intensity per cell. GSPT1 degradation (DC50) was calculated after normalization to controls and data import in CDD vault Database, using non-linear regression.

[3] = compounds 1 to 165, read-out: Activity for GSPT1 degradation (DC50 code)
[4] = compounds 201 to 307, read-out: Activity for GSPT1 degradation (DC50 code)

T2 sequence (P15170 whole entry): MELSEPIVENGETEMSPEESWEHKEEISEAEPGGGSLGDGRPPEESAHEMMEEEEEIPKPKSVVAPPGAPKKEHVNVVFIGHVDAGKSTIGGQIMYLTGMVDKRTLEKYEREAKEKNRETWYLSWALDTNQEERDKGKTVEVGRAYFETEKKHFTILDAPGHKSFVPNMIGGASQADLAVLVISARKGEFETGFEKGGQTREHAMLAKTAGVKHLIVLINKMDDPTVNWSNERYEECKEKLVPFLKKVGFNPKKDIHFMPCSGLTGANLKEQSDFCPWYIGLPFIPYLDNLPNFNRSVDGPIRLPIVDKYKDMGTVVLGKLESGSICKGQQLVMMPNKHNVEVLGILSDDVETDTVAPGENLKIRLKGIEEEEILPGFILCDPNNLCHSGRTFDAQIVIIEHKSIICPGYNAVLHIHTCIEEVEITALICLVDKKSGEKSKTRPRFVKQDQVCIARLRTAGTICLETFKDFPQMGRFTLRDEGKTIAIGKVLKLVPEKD
T2 sequence (Q96SW2 whole entry): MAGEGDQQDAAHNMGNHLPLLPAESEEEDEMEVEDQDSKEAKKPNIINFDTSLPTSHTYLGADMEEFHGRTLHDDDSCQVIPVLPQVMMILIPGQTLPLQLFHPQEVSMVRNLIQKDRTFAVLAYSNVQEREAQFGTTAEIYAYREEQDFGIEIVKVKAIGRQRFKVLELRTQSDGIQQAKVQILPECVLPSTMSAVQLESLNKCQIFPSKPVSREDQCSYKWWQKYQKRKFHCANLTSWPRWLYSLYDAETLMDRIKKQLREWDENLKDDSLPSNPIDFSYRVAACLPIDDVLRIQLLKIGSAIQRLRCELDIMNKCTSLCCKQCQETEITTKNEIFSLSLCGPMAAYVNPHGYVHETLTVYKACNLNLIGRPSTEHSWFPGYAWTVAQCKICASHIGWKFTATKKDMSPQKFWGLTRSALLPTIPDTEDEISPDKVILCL
T2 sequence (Q16531 whole entry partner): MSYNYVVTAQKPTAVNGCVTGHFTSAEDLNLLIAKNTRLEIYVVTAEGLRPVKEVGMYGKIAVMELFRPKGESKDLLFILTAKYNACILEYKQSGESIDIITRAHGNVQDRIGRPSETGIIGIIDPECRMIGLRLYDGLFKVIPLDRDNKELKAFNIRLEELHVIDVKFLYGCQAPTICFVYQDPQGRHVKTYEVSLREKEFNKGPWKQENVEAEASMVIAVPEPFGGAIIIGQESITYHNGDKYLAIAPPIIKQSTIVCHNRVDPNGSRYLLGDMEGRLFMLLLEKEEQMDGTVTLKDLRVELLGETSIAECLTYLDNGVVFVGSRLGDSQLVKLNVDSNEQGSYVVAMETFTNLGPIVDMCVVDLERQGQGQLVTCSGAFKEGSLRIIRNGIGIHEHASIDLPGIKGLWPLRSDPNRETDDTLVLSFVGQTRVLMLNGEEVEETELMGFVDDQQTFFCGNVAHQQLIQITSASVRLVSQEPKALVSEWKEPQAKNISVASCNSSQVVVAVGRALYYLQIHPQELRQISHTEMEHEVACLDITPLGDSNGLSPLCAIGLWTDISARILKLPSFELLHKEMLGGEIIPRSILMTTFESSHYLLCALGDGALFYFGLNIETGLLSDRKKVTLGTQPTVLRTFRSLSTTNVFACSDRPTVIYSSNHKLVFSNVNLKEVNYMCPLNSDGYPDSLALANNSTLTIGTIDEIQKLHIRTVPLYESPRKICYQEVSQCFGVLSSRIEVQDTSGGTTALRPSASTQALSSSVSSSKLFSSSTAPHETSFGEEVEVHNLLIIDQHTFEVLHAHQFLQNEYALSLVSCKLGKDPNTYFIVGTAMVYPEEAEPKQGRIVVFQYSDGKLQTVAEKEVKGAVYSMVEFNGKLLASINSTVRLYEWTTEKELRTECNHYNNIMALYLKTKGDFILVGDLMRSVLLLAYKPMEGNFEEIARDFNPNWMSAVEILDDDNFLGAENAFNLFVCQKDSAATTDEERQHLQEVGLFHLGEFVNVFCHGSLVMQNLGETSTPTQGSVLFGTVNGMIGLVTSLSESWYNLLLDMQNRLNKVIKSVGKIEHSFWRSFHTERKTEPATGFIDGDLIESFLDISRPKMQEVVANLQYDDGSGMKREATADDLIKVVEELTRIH
T1 sequence (Q96SW2 whole entry): as the sequence (Q96SW2 whole entry) above

| Structure (SMILES) | IC50 [1] | DC50 [2, 3] | DC50 [2, 4] |
| --- | --- | --- | --- |
| COc1ccc(CCNC(=O)NCc2ccc3c(c2)C(=O)N(C2CCC(=O)NC2=O)C3)cc1 (stereo not drawn) [Compound 51] | < 1.1 µM | > 0.3 µM |  |
| COc1ccccc1CNC(=O)NCc1ccc2c(c1)C(=O)N(C1CCC(=O)NC1=O)C2 (stereo not drawn) [Compound 60] | < 1.1 µM | > 0.3 µM |  |
| Cc1c(Cl)cc(NC(=O)NCc2ccc3c(c2)C(=O)N(C2CCC(=O)NC2=O)C3)cc1CN1CC2CCC(C1)O2 (stereo not drawn) [Compound 140] | < 1.1 µM | ≤ 0.1 µM |  |
| Cc1c(Cl)cc(NC(=O)NCc2ccc3c(c2)C(=O)N(C2CCC(=O)NC2=O)C3)cc1CN1CCN2CCC1C2 (stereo not drawn) [Compound 154] | < 1.1 µM | > 0.3 µM |  |
| Cc1c(Cl)cc(NC(=O)NCc2ccc3c(c2)C(=O)N(C2CCC(=O)NC2=O)C3)cc1CC1COCCN1C (stereo not drawn) [Compound 160] | < 1.1 µM | ≤ 0.1 µM |  |
| Cc1c(Cl)cc(NC(=O)OCc2ccc3c(c2)C(=O)N(C2CCC(=O)NC2=O)C3)cc1CN1CCOCC1 (stereo not drawn) [Compound 202] | < 1.1 µM |  | < 0.03 µM |
| O=C1CCC(N2Cc3ccc(COC(=O)Nc4cc(CN5CCOCC5)cc(OC(F)(F)F)c4)cc3C2=O)C(=O)N1 (stereo not drawn) [Compound 204] | < 1.1 µM |  | < 0.03 µM |
| Cc1ncc(NC(=O)OCc2ccc3c(c2)C(=O)N(C2CCC(=O)NC2=O)C3)cc1Cl (stereo not drawn) [Compound 206] | < 1.1 µM |  | < 0.03 µM |
| Cc1cc(NC(=O)OCc2ccc3c(c2)C(=O)N(C2CCC(=O)NC2=O)C3)cc(C)n1 (stereo not drawn) [Compound 207] | < 1.1 µM |  |  |
| Cc1cc(C)cc(NC(=O)OCc2ccc3c(c2)C(=O)N(C2CCC(=O)NC2=O)C3)c1 (stereo not drawn) [Compound 208] | < 1.1 µM |  | < 0.03 µM |
| Cc1c(Cl)cc(NC(=O)OCc2ccc3c(c2)C(=O)N(C2CCC(=O)NC2=O)C3)cc1CN1CC2CC1CO2 (stereo not drawn) [Compound 213] | < 1.1 µM |  | < 0.03 µM |
| O=C1CCC(N2Cc3ccc(COC(=O)Nc4ccc(N5CCCCC5)nc4)cc3C2=O)C(=O)N1 (stereo not drawn) [Compound 215] | < 1.1 µM |  | < 0.03 µM |
| O=C1CCC(N2Cc3ccc(COC(=O)Nc4ccc5c(c4)OCC5)cc3C2=O)C(=O)N1 (stereo not drawn) [Compound 218] | < 1.1 µM |  |  |
| Cc1ccc(NC(=O)OCc2ccc3c(c2)C(=O)N(C2CCC(=O)NC2=O)C3)cc1OC(F)F (stereo not drawn) [Compound 224] | < 1.1 µM |  | < 0.03 µM |
| Cc1c(CN2CCOCC2)cc(NC(=O)OCc2ccc3c(c2)C(=O)N(C2CCC(=O)NC2=O)C3)cc1OC(F)F (stereo not drawn) [Compound 225] | < 1.1 µM |  | < 0.03 µM |
| O=C1CCC(N2Cc3ccc(COC(=O)N4CCCC4)cc3C2=O)C(=O)N1 (stereo not drawn) [Compound 226] | < 1.1 µM |  |  |
| O=C1CCC(N2Cc3ccc(COC(=O)NC4CCCC4)cc3C2=O)C(=O)N1 (stereo not drawn) [Compound 229] | < 1.1 µM |  |  |
| CCOc1cc(NC(=O)OCc2ccc3c(c2)C(=O)N(C2CCC(=O)NC2=O)C3)ccc1C (stereo not drawn) [Compound 233] | < 1.1 µM |  |  |
| COc1cc(Cl)ccc1NC(=O)OCc1ccc2c(c1)C(=O)N(C1CCC(=O)NC1=O)C2 (stereo not drawn) [Compound 238] | < 1.1 µM |  |  |
| O=C1CCC(N2Cc3ccc(COC(=O)Nc4ccc(C5CC5)cc4)cc3C2=O)C(=O)N1 (stereo not drawn) [Compound 239] | < 1.1 µM |  | < 0.03 µM |
| Cc1c(F)cc(NC(=O)OCc2ccc3c(c2)C(=O)N(C2CCC(=O)NC2=O)C3)cc1CN1CCOCC1 (stereo not drawn) [Compound 241] | < 1.1 µM |  | < 0.03 µM |
| Cc1c(Cl)cc(NC(=O)OCc2ccc3c(c2)C(=O)N(C2CCC(=O)NC2=O)C3)cc1OC1CCNC1 (stereo not drawn) [Compound 244] | < 1.1 µM |  |  |

| Structure (SMILES) | IC50 [1] | DC50 [2, 3] | DC50 [2, 4] |
| --- | --- | --- | --- |
| COc1cc(NC(=O)OCc2ccc3c(c2)C(=O)N(C2CCC(=O)NC2=O)C3)cnc1C (stereo not drawn) [Compound 251] | < 1.1 µM |  |  |
| Cc1c(Cl)cc(NC(=O)OCc2ccc3c(c2)C(=O)N(C2CCC(=O)NC2=O)C3)cc1OCC1CCNC1 (stereo not drawn) [Compound 252] | < 1.1 µM |  |  |
| O=C1CCC(N2Cc3ccc(COC(=O)Nc4cnc5c(c4)CCC5)cc3C2=O)C(=O)N1 (stereo not drawn) [Compound 253] | < 1.1 µM |  |  |
| CCc1cc(NC(=O)OCc2ccc3c(c2)C(=O)N(C2CCC(=O)NC2=O)C3)cnc1C (stereo not drawn) [Compound 255] | < 1.1 µM |  | < 0.03 µM |
| CC1(c2ccc(NC(=O)OCc3ccc4c(c3)C(=O)N(C3CCC(=O)NC3=O)C4)cc2)CC1 (stereo not drawn) [Compound 258] | < 1.1 µM |  | < 0.03 µM |
| CC1(c2ccc(NC(=O)OCc3ccc4c(c3)C(=O)N(C3CCC(=O)NC3=O)C4)cc2)COC1 (stereo not drawn) [Compound 262] | < 1.1 µM |  |  |
| O=C1CCC(N2Cc3ccc(COC(=O)Nc4cnc(N5CCCCC5)nc4)cc3C2=O)C(=O)N1 (stereo not drawn) [Compound 264] | < 1.1 µM |  |  |
| O=C1CCC(N2Cc3ccc(COC(=O)Nc4ccc5c(c4)CCCO5)cc3C2=O)C(=O)N1 (stereo not drawn) [Compound 267] | < 1.1 µM |  |  |
| Cc1c(Cl)cc(NC(=O)OCc2ccc3c(c2)C(=O)N(C2CCC(=O)NC2=O)C3)cc1OC1CCN(C)C1 (stereo not drawn) [Compound 268] | < 1.1 µM |  | < 0.03 µM |
| O=C1CCC(N2Cc3ccc(COC(=O)Nc4cnc(N5CCCCC5)c(F)c4)cc3C2=O)C(=O)N1 (stereo not drawn) [Compound 272] | < 1.1 µM |  |  |
| O=C1CCC(N2Cc3ccc(COC(=O)Nc4ccc(N5CCOCC5)nc4)cc3C2=O)C(=O)N1 (stereo not drawn) [Compound 276] | < 1.1 µM |  |  |
| CC1CCCCN1c1ccc(NC(=O)OCc2ccc3c(c2)C(=O)N(C2CCC(=O)NC2=O)C3)cn1 (stereo not drawn) [Compound 277] | < 1.1 µM |  | < 0.03 µM |
| CC1(C)COc2cc(NC(=O)OCc3ccc4c(c3)C(=O)N(C3CCC(=O)NC3=O)C4)ccc21 (stereo not drawn) [Compound 283] | < 1.1 µM |  | < 0.03 µM |
| Cc1ccccc1-c1ccc(NC(=O)OCc2ccc3c(c2)C(=O)N(C2CCC(=O)NC2=O)C3)cn1 (stereo not drawn) [Compound 286] | < 1.1 µM |  | < 0.03 µM |
| COc1ccccc1-c1ccc(NC(=O)OCc2ccc3c(c2)C(=O)N(C2CCC(=O)NC2=O)C3)cn1 (stereo not drawn) [Compound 287] | < 1.1 µM |  | < 0.03 µM |
| CN(C)C1CN(c2ccc(NC(=O)OCc3ccc4c(c3)C(=O)N(C3CCC(=O)NC3=O)C4)cn2)C1 (stereo not drawn) [Compound 289] | < 1.1 µM |  |  |
| O=C1CCC(N2Cc3ccc(COC(=O)Nc4cccc(OC5CC5)c4)cc3C2=O)C(=O)N1 (stereo not drawn) [Compound 293] | < 1.1 µM |  |  |
| O=C1CCC(N2Cc3ccc(COC(=O)NCc4ccccc4)cc3C2=O)C(=O)N1 (stereo not drawn) [Compound 298] | < 1.1 µM |  |  |
| O=C1CCC(N2Cc3ccc(COC(=O)Nc4cc(CN5CC6CC5CO6)cc(OC(F)F)c4)cc3C2=O)C(=O)N1 (stereo not drawn) [Compound 300] | < 1.1 µM |  |  |
| CC(NC(=O)OCc1ccc2c(c1)C(=O)N(C1CCC(=O)NC1=O)C2)c1ccccc1 (stereo not drawn) [Compound 302] | < 1.1 µM |  |  |
| O=C1CCC(N2Cc3ccc(COC(=O)Nc4ccc(C5CCC5)nc4)cc3C2=O)C(=O)N1 (stereo not drawn) [Compound 305] | < 1.1 µM |  |  |
| O=C1CCC(N2Cc3ccc(COC(=O)Nc4cc(OCCN5CCOCC5)cc(OC(F)(F)F)c4)cc3C2=O)C(=O)N1 (stereo not drawn) [Compound 306] | < 1.1 µM |  |  |
